Values quoted from earlier work, collected in US11459613B2, “Methods of characterizing resistance to modulators of Cereblon” (THE BRIGHAM AND WOMEN'S HOSPITAL, INC., priority 2015, dated 2022).

Conditions: lenalidomide in combination with dexamethasone, front-line therapy, standard-risk multiple myeloma

SMILES: Nc1cccc2c1CN(C1CCC(=O)NC1=O)C2=O (stereo not shown) [lenalidomide]
- disease progression develops after initiating treatment (on average): 11 months
